Results on 17 compounds are retold here after patent publication US8883801B2, “Substituted pyrazolo[1,5-a]pyrimidines as mTOR inhibitors” (Merck Sharp & Dohme Corp., priority 2010, dated 2014).

In general, IC50 refers to the concentration at which inhibition is half-maximal.

Structures are written as SMILES. Where two headings read alike, the source gives them in different places.

The subject of assay [1] is mTORC1 activity: phosphorylated 4E-BP1 Thr37/46 (p4E-BP1 Thr37/46) in PC3 cells. The assay can be described thus: mTOR target engagement assay, immunofluorescent cell-based, mTORC1 readout. Particulars: 90 min treatment, read-out: P4EBP1 IC50. On the procedure:
The target engagement of mTOR kinase inhibitors was evaluated using an immunofluorescent cell-based assay. In this assay, inhibition of mTORC1 activity was measured by the reduction in the level of phosphorylated 4E-BP1Thr37/46 (p4E-BP1 Thr37/46), and inhibition of mTORC2 activity was measured by the reduction of phosphorylated AKTSer473 (pAKT S473).
PC3 cells (prostate tumor cell-line that contains a mutation in the tumor suppressor PTEN, that promotes the phosphorylation and activation of AKT and 4E-BP1) were used in the immunofluorescence assay. PC3 cells were seeded on 384 well plates (black clear bottom, Matrix #4332) overnight. PC3 cells were then treated with 40 μl of the serially diluted test compounds (in 5% fetal bovine serum, F12 medium containing 0.25% DMSO) for ninety minutes at 37° C. The test compound solution was removed, and the plates were washed gently two times with 25 μl phosphate buffered saline (PBS). The cells were fixed by adding 25 μl of Prefer reagent (from Anatech LTD, Cat#414, a glyoxal fixative for fixing proteins within a cell) for sixty minutes followed by three washes with PBS. 5% Goat serum in PBS/0.3% Triton was used to block non-specific binding (60 minutes).
The primary antibodies targeting pAKT S473 and p4E-BP1 Thr37/46 were diluted into PBS/0.3% Triton and incubated with the cells overnight at 4° C. The antibodies targeting pAKTS473 (Cat#4085, Cell signaling) and p4E-BP1 Thr37/46 (Cat#2855, Cell signaling) were used at a 1:100 dilution. Plates were washed three times with PBS/0.1% Tween 20 before adding the secondary antibody at a 1:200 dilution. (goat anti-rabbit containing a fluorescent label, Alexa Fluor 488, Cat#A11008, Invitrogen) in PBS/0.3% Triton for 60 minutes.
Finally, the plates were washed three times with PBS/0.1% Tween 20 and the fluorescent intensity was read using an Analyst HT from Molecular Devices. The fluorescent intensity values from the serially diluted compound treatment group were analyzed using the Xlfit 4 program ([…]) (Formula 205: Y=Bottom+(Top-Bottom)/(1+(IC50/X)^Hillslope) to generate the IC50 value. Where Top is the maximum signal without Compound (+DMSO only) and Bottom represents maximum inhibition. Y is the fluorescence at some compound concentration. The control used to determine the fluorescent intensities for 100% pAKT S473 or 100% phosphorylated p4E-BP1 Thr37/46 were measured from untreated wells that contained only DMSO, instead of test compound.

The subject of assay [2] is mTORC2 activity: phosphorylated AKT Ser473 (pAKT S473) in PC3 cells. The assay can be described thus: mTOR target engagement assay, immunofluorescent cell-based, mTORC2 readout. Particulars: 90 min treatment. The method in brief:
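Read-out is immunofluorescence intensity, normalized to DMSO-only wells and fitted to a sigmoidal Hill equation for IC50. The mTORC1 arm probes phospho-4E-BP1 Thr37/46 and the mTORC2 arm phospho-AKT Ser473.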

Assay [3] has as its target human mTOR enzyme (Homo sapiens, UniProt P42345). In words: HTRF mTOR enzyme (kinase) assay. The class given is biochemical. Particulars: 5 μM ATP, 0.2 μM GST-S6K, read-out: hMTOR IC50. A general note: Time-resolved FRET reads energy transfer from a long-lived donor to a nearby acceptor.
The mark [4] stands for this setting: Homo sapiens, PC-3, 1.5 h, rated class.

human mTOR enzyme, sequence (P42345 1360-2549 limits assumed): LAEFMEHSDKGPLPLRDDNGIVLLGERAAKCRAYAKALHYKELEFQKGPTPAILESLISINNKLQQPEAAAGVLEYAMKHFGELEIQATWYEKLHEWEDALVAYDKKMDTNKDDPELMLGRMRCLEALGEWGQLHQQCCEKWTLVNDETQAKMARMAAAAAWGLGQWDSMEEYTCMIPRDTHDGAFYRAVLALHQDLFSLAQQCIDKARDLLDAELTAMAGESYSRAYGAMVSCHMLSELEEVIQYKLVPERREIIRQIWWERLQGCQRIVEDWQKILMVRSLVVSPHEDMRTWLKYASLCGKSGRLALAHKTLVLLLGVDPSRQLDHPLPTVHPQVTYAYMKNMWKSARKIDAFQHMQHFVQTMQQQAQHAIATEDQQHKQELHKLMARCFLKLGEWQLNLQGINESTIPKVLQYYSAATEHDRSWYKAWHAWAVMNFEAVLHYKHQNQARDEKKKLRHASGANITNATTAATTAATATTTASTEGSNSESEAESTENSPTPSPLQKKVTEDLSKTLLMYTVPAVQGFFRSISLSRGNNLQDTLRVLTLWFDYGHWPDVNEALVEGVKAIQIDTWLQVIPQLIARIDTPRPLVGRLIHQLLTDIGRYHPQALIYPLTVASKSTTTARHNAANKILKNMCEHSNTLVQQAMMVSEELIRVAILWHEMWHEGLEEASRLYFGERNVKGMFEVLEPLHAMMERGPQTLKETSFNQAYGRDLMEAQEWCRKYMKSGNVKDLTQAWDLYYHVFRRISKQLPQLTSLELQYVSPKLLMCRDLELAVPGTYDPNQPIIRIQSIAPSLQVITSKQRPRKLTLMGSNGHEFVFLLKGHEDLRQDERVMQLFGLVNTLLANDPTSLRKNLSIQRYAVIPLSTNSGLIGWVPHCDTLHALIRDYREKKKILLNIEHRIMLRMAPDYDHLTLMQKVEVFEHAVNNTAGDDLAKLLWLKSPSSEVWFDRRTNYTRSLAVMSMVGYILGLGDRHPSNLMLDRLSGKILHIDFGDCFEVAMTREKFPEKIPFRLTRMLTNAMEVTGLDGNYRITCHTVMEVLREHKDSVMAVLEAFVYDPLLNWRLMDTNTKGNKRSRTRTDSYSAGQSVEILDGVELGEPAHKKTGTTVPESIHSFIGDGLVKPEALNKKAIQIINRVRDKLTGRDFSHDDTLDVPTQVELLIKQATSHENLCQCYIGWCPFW

Take `CC(=O)c1c(N)n2ncc(-c3ccc(-c4ccccc4)nc3)c2nc1[C@H]1CC[C@](O)(CS(C)(=O)=O)CC1` [Compound 162, 1-(7-amino-5-((1S,4S)-4-hydroxy-4-(methylsulfonylmethyl)cyclohexyl)-3-(6-phenylpyridin-3-yl)pyrazolo[1,5-a]pyrimidin-6-yl)ethanone]: the results for the IC50 in assay [1] (setting [4]), in assay [2] (setting [4]) and in assay [3] (rated class) were 100 to 1000 nM, 1 to 100 nM and 1 to 100 nM, respectively.

For `COC[C@]1(C(=O)O)CC[C@H](c2nc3c(-c4ccc(-c5ccccc5)nc4)cnn3c(N)c2C(C)=O)CC1` [Compound 18, (1R,4R)-4-(6-acetyl-7-amino-3-(6-phenylpyridin-3-yl)pyrazolo[1,5-a]pyrimidin-5-yl)-1-(methoxymethyl)-cyclohexane-carboxylic acid], the IC50 in assay [1] (setting [4]) lay in the range of 100 to 1000 nM; in assay [2] (setting [4]), 1 to 100 nM; in assay [3] (rated class), 1 to 100 nM.

Turning to `COCCO[C@]1(C(=O)O)CC[C@@H](c2nc3c(-c4ccc(-c5ccccc5)nc4)cnn3c(N)c2Br)CC1` [Compound 64, (1R,4R)-4-(7-amino-6-bromo-3-(6-phenylpyridin-3-yl)pyrazolo[1,5-a]pyrimidin-5-yl)-1-(2-methoxyethoxy)cyclohexanecarboxylic acid], the IC50 was in the range of 100 to 1000 nM in assay [1] (setting [4]), 100 to 1000 nM in assay [2] (setting [4]) and 1 to 100 nM in assay [3] (rated class).

On to `COCCO[C@]1(C(=N)N)CC[C@@H](c2nc3c(-c4cnn(-c5ccccc5)c4)cnn3c(N)c2S(C)(=O)=O)CC1` [Compound 120, (1R,4R)-4-(7-amino-6-(methylsulfonyl)-3-(1-phenyl-1H-pyrazol-4-yl)pyrazolo[1,5-a]pyrimidin-5-yl)-1-(2-methoxyethoxy)cyclohexanecarboximidamide], for which the figures for the IC50 in assay [1] (setting [4]), in assay [2] (setting [4]) and in assay [3] (rated class) were 100 to 1000 nM, 100 to 1000 nM and 1 to 100 nM, respectively.

In the case of `Nc1c(Br)c([C@H]2CC[C@@](O)(CC(=O)O)CC2)nc2c(-c3ccc(-c4ccccc4)nc3)cnn12` [Compound 76, 2-((1R,4R)-4-(7-amino-6-bromo-3-(6-phenylpyridin-3-yl)pyrazolo[1,5-a]pyrimidin-5-yl)-1-hydroxycyclohexyl)acetic acid], the figures for the IC50 in assay [1] (setting [4]), in assay [2] (setting [4]) and in assay [3] (rated class) were 100 to 1000 nM, 100 to 1000 nM and 1 to 100 nM, respectively.

As to `CC(=O)c1c(N)n2ncc(-c3ccc(-c4ccccc4)nc3)c2nc1[C@H]1CC[C@@](O)(CO)CC1` [Compound 139, 1-(7-amino-5-((1R,4R)-4-hydroxy-4-(hydroxymethyl)cyclohexyl)-3-(6-phenylpyridin-3-yl)pyrazolo[1,5-a]pyrimidin-6-yl)ethanone], the values for the IC50 in assay [1] (setting [4]), in assay [2] (setting [4]) and in assay [3] (rated class) were 100 to 1000 nM, 100 to 1000 nM and 1 to 100 nM, respectively.

On to `Nc1c(Br)c([C@H]2CC[C@](O)(CC(=O)O)CC2)nc2c(-c3cnn(-c4ccccc4)c3)cnn12` [Compound 78, 2-((1S,4S)-4-(7-amino-6-bromo-3-(1-phenyl-1H-pyrazol-4-yl)pyrazolo[1,5-a]pyrimidin-5-yl)-1-hydroxycyclohexyl)-acetic acid], for which the values for the IC50 in assay [1] (setting [4]), in assay [2] (setting [4]) and in assay [3] (rated class) were 100 to 1000 nM, 100 to 1000 nM and 1 to 100 nM, respectively.

As to `COCCO[C@]1(c2nnc(C)o2)CC[C@@H](c2nc3c(-c4cnn(-c5ccccc5)c4)cnn3c(N)c2S(C)(=O)=O)CC1` [Compound 109], the IC50 lay in the range of 2000 to 5000 nM in assay [1] (setting [4]), 100 to 1000 nM in assay [2] (setting [4]) and 1 to 100 nM in assay [3] (rated class).

As for `C[C@]1(C(=O)O)CC[C@H](c2nc3c(-c4ccc(-c5ccccc5)nc4)cnn3c(N)c2Br)CC1` [Compound 1, (1R,4R)-4-(7-amino-6-bromo-3-(6-phenylpyridin-3-yl)pyrazolo[1,5-a]pyrimidin-5-yl)-1-methylcyclohexanecarboxylic acid], the values for the IC50 in assay [1] (numeric value), in assay [2] (numeric value) and in assay [3] (numeric value) were 850 nM, 275 nM and 1.33 nM, respectively.

`COCCO[C@]1(C(=O)c2nnc[nH]2)CC[C@@H](c2nc3c(-c4ccc(-c5ccccc5)nc4)cnn3c(N)c2S(C)(=O)=O)CC1` [Compound 125, ((1R,4R)-4-(7-amino-6-(methylsulfonyl)-3-(6-phenylpyridin-3-yl)pyrazolo[1,5-a]pyrimidin-5-yl)-1-(2-methoxyethoxy)cyclohexyl)(4H-1,2,4-triazol-3-yl)methanone]: the IC50 in assay [1] (setting [4]), in assay [2] (setting [4]) and in assay [3] (rated class) was 1 to 100 nM in each case.

With `COCCO[C@]1(C(=O)O)CC[C@@H](c2nc3c(-c4cnc(-c5ccccc5)nc4)cnn3c(N)c2S(C)(=O)=O)CC1` [Compound 46, (1R,4R)-4-(7-amino-6-(methylsulfonyl)-3-(2-phenylpyrimidin-5-yl)pyrazolo[1,5-a]pyrimidin-5-yl)-1-(2-methoxyethoxy) cyclohexanecarboxylic acid], the IC50 in assay [1] (setting [4]) was 5000 to 15000 nM; in assay [2] (setting [4]) it was 5000 to 15000 nM; in assay [3] (rated class), 1 to 100 nM.

Consider `CC(=O)c1c(C2CCC(O)(CO)CC2)nc2c(-c3ccc(-c4nccs4)nc3)cnn2c1N` (stereo not drawn) [Compound 156, 1-(7-amino-5-(4-hydroxy-4-(hydroxymethyl)-cyclohexyl)-3-(6-(thiazol-2-yl)pyridin-3-yl)pyrazolo[1,5-a]pyrimidin-6-yl)ethanone], for which the IC50 was 100 to 1000 nM in assay [1] (setting [4]), 100 to 1000 nM in assay [2] (setting [4]) and 1 to 100 nM in assay [3] (rated class).

For the compound `COCCO[C@]1(C(=O)O)CC[C@@H](c2nc3c(-c4ccc(-c5ccc(O)c(F)c5)nc4)cnn3c(N)c2S(C)(=O)=O)CC1` [Compound 48, (1R,4R)-4-(7-amino-3-(6-(3-fluoro-4-hydroxyphenyl)pyridin-3-yl)-6-(methylsulfonyl)-pyrazolo[1,5-a]-pyrimidin-5-yl)-1-(2-methoxyethoxy)-cyclohexanecarboxylic acid], the IC50 lay in the range of 5000 to 15000 nM in assay [1] (setting [4]), 5000 to 15000 nM in assay [2] (setting [4]) and 1 to 100 nM in assay [3] (rated class).

On to `COCCO[C@]1(C(=O)CO)CC[C@@H](c2nc3c(-c4cnn(-c5ccccc5)c4)cnn3c(N)c2S(C)(=O)=O)CC1` [Compound 129, 1-((1R,4R)-4-(7-amino-6-(methylsulfonyl)-3-(1-phenyl-1H-pyrazol-4-yl)pyrazolo[1,5-a]pyrimidin-5-yl)-1-(2-methoxyethoxy)cyclohexyl)-2-hydroxyethanone], for which the IC50 in assay [1] (setting [4]) lay in the range of 100 to 1000 nM; in assay [2] (setting [4]), 1 to 100 nM; in assay [3] (rated class), 1 to 100 nM.

With `COCCO[C@]1(C(=O)NOCCO)CC[C@@H](c2nc3c(-c4cnn(-c5ccccc5)c4)cnn3c(N)c2S(C)(=O)=O)CC1` [Compound 100], the IC50 in assay [1] (setting [4]), in assay [2] (setting [4]) and in assay [3] (rated class) was 1 to 100 nM each time.

As to `COCCO[C@]1(c2nnc[nH]2)CC[C@@H](c2nc3c(-c4ccc(-c5ccccc5)nc4)cnn3c(N)c2S(C)(=O)=O)CC1` [Compound 128], the IC50 lay in the range of 100 to 1000 nM in assay [1] (setting [4]), 100 to 1000 nM in assay [2] (setting [4]) and 1 to 100 nM in assay [3] (rated class).

As to `COCCO[C@]1(C(=O)NO)CC[C@@H](c2nc3c(-c4ccc(-c5ccccc5)nc4)cnn3c(N)c2S(C)(=O)=O)CC1` [Compound 104, (1R,4R)-4-(7-amino-6-(methylsulfonyl)-3-(6-phenylpyridin-3-yl)pyrazolo[1,5-a]pyrimidin-5-yl)-N-hydroxy-1-(2-methoxyethoxy)-cyclohexane-carboxamide], the IC50 in assay [1] (setting [4]), in assay [2] (setting [4]) and in assay [3] (rated class) was 1 to 100 nM each time.
